Structures are written as SMILES. Some results are limits rather than exact numbers.

The target of this assay is T1, IRAK4 (Homo sapiens, UniProt Q9NWZ3).
T1 construct: endogenous in cells; host or cells: OCI-LY10
T1 sequence (Q9NWZ3 1-460): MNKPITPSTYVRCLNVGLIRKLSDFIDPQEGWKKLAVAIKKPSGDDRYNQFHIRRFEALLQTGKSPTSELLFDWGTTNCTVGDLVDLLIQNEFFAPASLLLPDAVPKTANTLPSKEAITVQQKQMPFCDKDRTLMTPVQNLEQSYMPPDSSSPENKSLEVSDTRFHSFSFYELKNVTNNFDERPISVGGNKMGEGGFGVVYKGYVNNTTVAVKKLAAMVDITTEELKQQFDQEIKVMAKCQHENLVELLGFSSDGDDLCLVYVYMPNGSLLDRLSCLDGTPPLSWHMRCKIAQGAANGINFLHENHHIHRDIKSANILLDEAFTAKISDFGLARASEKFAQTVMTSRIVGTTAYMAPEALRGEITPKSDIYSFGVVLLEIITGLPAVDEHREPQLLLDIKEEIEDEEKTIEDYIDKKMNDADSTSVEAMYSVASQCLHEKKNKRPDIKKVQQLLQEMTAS
The assay is described as follows: IRAK4 MSD degradation in OCI-LY10. The class given is cell-based. The note with it: OCI-LY10 cells, 24 hrs, Meso Scale Discovery. A digest of the protocol:
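OCI-LY10 cells treated 4 to 24 hours at 37° C. with 8-dose 1:3 series, top 1 to 10 μM. IRAK4 in lysates quantified by MSD sandwich immunoassay (mouse capture, rabbit detection, SULFO-TAG anti-rabbit). DC50 from three-parameter logistic fit.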
In general, DC50 refers to the concentration giving 50% degradation. A higher DC50 goes with a less potent degrader. In turn, `Cn1nc(C2CCC(=O)NC2=O)c2cccc(N3CC(O)(CN4CCN(C[C@H]5CC[C@H](n6cc(NC(=O)c7cnn8ccc(N9C[C@H]%10C[C@@H]9CO%10)nc78)c(C(F)F)n6)CC5)CC4)C3)c21` (some centres unmarked) [I-86] showed a 50% degradation concentration (DC50) of under 10 nM.
`Cc1nn([C@@H]2CCC(=O)NC2=O)c2cccc(N3CC(CN4CCN(C[C@H]5CC[C@H](n6cc(NC(=O)c7cnn8ccc(N9C[C@H]%10C[C@@H]9CO%10)nc78)c(C(F)F)n6)CC5)CC4)C3)c12` [I-87] showed a DC50 of under 10 nM.
To `Cc1nn([C@H]2CCC(=O)NC2=O)c2cccc(N3CC(CN4CCN(C[C@H]5CC[C@H](n6cc(NC(=O)c7cnn8ccc(N9C[C@H]%10C[C@@H]9CO%10)nc78)c(C(F)F)n6)CC5)CC4)C3)c12` [I-88] belongs under 10 nM.
`COc1cc2nn([C@H]3CC[C@H](CN(C)[C@@H]4CCN(c5cccc6c5n(C)c(=O)n6C5CCC(=O)NC5=O)C[C@H]4F)CC3)cc2cc1NC(=O)c1cccc(C(F)(F)F)n1` (some centres unmarked) [I-90] registered a half-maximal degradation concentration (DC50) of under 10 nM.
The compound `Cn1nc(N2CCC(=O)NC2=O)c2cccc(N3CC(CN4CCN(C[C@H]5CC[C@H](n6cc(NC(=O)c7cnn8ccc(N9C[C@H]%10C[C@@H]9CO%10)nc78)c(C(F)F)n6)CC5)CC4)C3)c21` [I-91] returned a DC50 of 10 to 100 nM.
`Cc1nn(C2CCC(=O)NC2=O)c2cc(F)cc(N3CC(CN4CCN(C[C@H]5CC[C@H](n6cc(NC(=O)c7cnn8ccc(N9C[C@H]%10C[C@@H]9CO%10)nc78)c(C(F)F)n6)CC5)CC4)C3)c12` (some centres unmarked) [I-92] returned a DC50 of under 10 nM.
To `Cn1nc(C2CCC(=O)NC2=O)c2cccc(N3CC(CN4CCN(C[C@H]5CC[C@H](n6cc(NC(=O)c7cnn8ccc(N9C[C@H]%10C[C@@H]9CO%10)nc78)c(C(F)F)n6)CC5)CC4)C3)c21` (some centres unmarked) [I-93] belongs under 10 nM.
`Cn1c(=O)n(C2CCC(=O)NC2=O)c2cccc([C@@H]3CCN(C[C@H]4C[C@H](n5cc6cc(NC(=O)c7cccc(C(F)(F)F)n7)c(C#N)cc6n5)C4)C[C@H]3F)c21` (some centres unmarked) [I-94] showed a half-maximal degradation concentration (DC50) of under 10 nM.
`Cn1c(=O)n(C2CCC(=O)NC2=O)c2cccc([C@H]3CCN(C[C@H]4CC[C@H](c5nc6ccc(NC(=O)c7cccc(C(F)(F)F)n7)cc6s5)CC4)C[C@@H]3F)c21` (some centres unmarked) [I-97] came in with a DC50 of 10 to 100 nM.
`Cn1c(=O)n(C2CCC(=O)NC2=O)c2cccc([C@H]3CCN(C[C@H]4CC[C@H](c5nc6cc(C(C)(C)O)c(NC(=O)c7cccc(C(F)(F)F)n7)cc6s5)CC4)C[C@@H]3F)c21` (some centres unmarked) [I-103] yielded a half-maximal degradation concentration (DC50) of under 10 nM.
Compound `CN(C[C@H]1CC[C@H](c2nc3cc(C(C)(C)O)c(NC(=O)c4cccc(C(F)(F)F)n4)cc3s2)CC1)[C@H]1CCN(c2cccc3c2n(C)c(=O)n3C2CCC(=O)NC2=O)C[C@H]1F` (some centres unmarked) [I-105] displayed a 50% degradation concentration (DC50) of under 10 nM.
As to `Cn1c(=O)n(C2CCC(=O)NC2=O)c2cccc(OC3CC4(CCN(Cc5ccc(-n6cc(NC(=O)c7cnn8ccc(N9C[C@H]%10C[C@@H]9CO%10)nc78)c(C(F)F)n6)cc5)CC4)C3)c21` (some centres unmarked) [I-113], the half-maximal degradation concentration (DC50) is under 10 nM.
In turn, `Cn1c(=O)n(C2CCC(=O)NC2=O)c2cccc(N3CC(C4CCN([C@H]5CC[C@H](n6cc(NC(=O)c7cnn8ccc(N9C[C@H]%10C[C@@H]9CO%10)nc78)c(C(F)F)n6)CC5)CC4(F)F)C3)c21` (some centres unmarked) [I-115] displayed a 50% degradation concentration (DC50) of under 10 nM.
For `COc1cc2nn([C@H]3CC[C@H](CN4CCN(c5cccc6c5c(C)nn6C5CCC(=O)NC5=O)CC4)CC3)cc2cc1NC(=O)c1cncc(C)c1` (some centres unmarked) [I-118], the half-maximal degradation concentration (DC50) lay in the range of 10 to 100 nM.
To `O=C1CCN(c2cncc3c(N4CC(CO[C@@H]5CCN(C[C@H]6CC[C@H](n7cc(NC(=O)c8cnn9ccc(N%10C[C@H]%11C[C@@H]%10CO%11)nc89)c(C(F)F)n7)CC6)C[C@@H]5F)C4)cccc23)C(=O)N1` [I-120] belongs under 10 nM; to `Cn1nc(C2CCC(=O)NC2=O)c2cccc([C@@H]3CCN(C[C@H]4CC[C@H](n5cc6cc(NC(=O)c7cccc(C(F)(F)F)n7)ccc6n5)CC4)C[C@H]3F)c21` (some centres unmarked) [I-122], under 10 nM; to `Cn1c(=O)n(C2CCC(=O)NC2=O)c2cccc(N3CC(COC[C@H]4CC[C@H](n5cc6cc(NC(=O)c7cccc(C(F)(F)F)n7)ccc6n5)CC4)C3)c21` (some centres unmarked) [I-123], 10 to 100 nM.
To `O=C1CC[C@H](c2ccc(N3CC(N4CCN([C@H]5CC[C@H](n6cc(NC(=O)c7cnn8ccc(N9C[C@H]%10C[C@@H]9CO%10)nc78)c(C(F)F)n6)CC5)CC4)C3)cc2Cl)C(=O)N1` [I-124] belongs under 10 nM; to `O=C1CC[C@@H](c2ccc(N3CC(N4CCN([C@H]5CC[C@H](n6cc(NC(=O)c7cnn8ccc(N9C[C@H]%10C[C@@H]9CO%10)nc78)c(C(F)F)n6)CC5)CC4)C3)cc2Cl)C(=O)N1` [I-125], 10 to 100 nM.
To `Cn1c(=O)n(C2CCC(=O)NC2=O)c2cccc(N3CC(COC[C@H]4CC[C@H](n5cc6cc(NC(=O)c7cccc(C(F)(F)F)c7)ccc6n5)CC4)C3)c21` (some centres unmarked) [I-126] belongs 10 to 100 nM; to `COc1cc2nn([C@H]3CC[C@H](CN4CCC5(CCN(c6ccc(C7CCC(=O)NC7=O)c(Cl)c6)CC5)C(F)(F)C4)CC3)cc2cc1NC(=O)c1cncc(C#N)c1` (some centres unmarked) [I-130], 10 to 100 nM.
For `COc1cc2nn([C@H]3CC[C@H](CN4CCC5(CCN(c6cccc7c6c(C)nn7C6CCC(=O)NC6=O)CC5)C(F)(F)C4)CC3)cc2cc1NC(=O)c1cncc(C#N)c1` (some centres unmarked) [I-131], the DC50 was in the range of 10 to 100 nM.
For `CN(C[C@H]1CC[C@H](c2nc3cc(C(C)(C)O)c(NC(=O)c4cccc(C(F)(F)F)n4)cc3o2)CC1)[C@H]1CCN(c2cccc3c2n(C)c(=O)n3C2CCC(=O)NC2=O)C[C@@H]1F` (some centres unmarked) [I-138], the half-maximal degradation concentration (DC50) was under 10 nM.
The compound `CN(C[C@H]1CC[C@H](c2nc3cc(C(C)(C)O)c(NC(=O)c4cccc(C(F)(F)F)n4)cc3o2)CC1)[C@@H]1CCN(c2cccc3c2n(C)c(=O)n3C2CCC(=O)NC2=O)C[C@@H]1F` (some centres unmarked) [I-139] returned a half-maximal degradation concentration (DC50) of under 10 nM.
`COc1cc2nc([C@H]3CC[C@H](CN4CCC5(CCN(c6cccc7c6n(C)c(=O)n7C6CCC(=O)NC6=O)CC5)C(F)(F)C4)CC3)sc2cc1NC(=O)c1cncc(C#N)c1` (some centres unmarked) [I-150]: the DC50 is over 200 nM.
In turn, `COc1cc2nn([C@H]3CC[C@H](CN4CCC5(CCN(c6cccc7c6n(C)c(=O)n7C6CCC(=O)NC6=O)CC5)C(F)(F)C4)CC3)cc2cc1NC(=O)c1cccc(C(F)(F)F)c1` (some centres unmarked) [I-151] had a DC50 of 10 to 100 nM.
`COc1cc2nc(C3CCN(CC4(F)CCN(c5cccc6c5n(C)c(=O)n6C5CCC(=O)NC5=O)CC4)CC3)sc2cc1NC(=O)c1cncc(C#N)c1` (centres unmarked) [I-157]: the 50% degradation concentration (DC50) was over 200 nM.
`Cn1c(=O)n(C2CCC(=O)NC2=O)c2cccc(N3CCC4(CCN(C[C@H]5CC[C@H](n6cc7cc(NC(=O)c8cccc(C(F)(F)F)c8)ccc7n6)CC5)CC4(F)F)CC3)c21` (some centres unmarked) [I-158] registered a DC50 of 10 to 100 nM.
Take `Cn1c(=O)n(C2CCC(=O)NC2=O)c2cccc([C@@H]3CCN(C[C@H]4CC[C@H](n5cc6cc(NC(=O)c7cccnn7)ccc6n5)CC4)C[C@H]3F)c21` (some centres unmarked) [I-164]: the DC50 is 10 to 100 nM.
As to `Cn1c(=O)n(C2CCC(=O)NC2=O)c2cccc([C@@H]3CCN(C[C@H]4CC[C@H](n5cc6cc(NC(=O)c7coc(C(F)(F)F)n7)ccc6n5)CC4)C[C@H]3F)c21` (some centres unmarked) [I-165], the 50% degradation concentration (DC50) is under 10 nM.
The compound `COc1cc2nc([C@H]3CC[C@H](CN4CCC5(CCN(c6cccc7c6n(C)c(=O)n7C6CCC(=O)NC6=O)CC5)C(F)(F)C4)CC3)cn2cc1NC(=O)c1cncc(C#N)c1` (some centres unmarked) [I-168] returned a DC50 of over 200 nM.
Consider `COc1cc2nc([C@H]3CC[C@H](CN4CC[C@@H](c5cccc6c5n(C)c(=O)n6C5CCC(=O)NC5=O)[C@H](F)C4)CC3)sc2cc1NC(=O)c1cncc(C(F)(F)F)n1` (some centres unmarked) [I-174], for which the half-maximal degradation concentration (DC50) was in the range of 10 to 100 nM.
Compound `Cc1nn(C2CCC(=O)NC2=O)c2cccc([C@@H]3CCN(C[C@H]4CC[C@H](n5cc6cc(NC(=O)c7cccc(C(F)(F)F)n7)ncc6n5)CC4)C[C@H]3F)c12` (some centres unmarked) [I-187] returned a DC50 of 10 to 100 nM.
`COc1cc2nc([C@H]3CC[C@H](CN4CC[C@@H](c5cccc6c5n(C)c(=O)n6C5CCC(=O)NC5=O)[C@H](F)C4)CC3)cn2cc1NC(=O)c1cncc(C#N)c1` (some centres unmarked) [I-198] came in with a DC50 of over 200 nM.
To `CN(C[C@H]1CC[C@H](n2cc(NC(=O)c3cnn4cccnc34)c(C(F)F)n2)CC1)[C@@H]1CCN(c2cccc3c2n(C)c(=O)n3C2CCC(=O)NC2=O)CC1(F)F` (some centres unmarked) [I-202] belongs 10 to 100 nM; to `CN(C[C@H]1CC[C@H](n2cc(NC(=O)c3cnn4cccnc34)c(C(F)F)n2)CC1)[C@H]1CCN(c2cccc3c2n(C)c(=O)n3C2CCC(=O)NC2=O)CC1(F)F` (some centres unmarked) [I-203], 10 to 100 nM.
For the compound `CN(C[C@H]1CC[C@H](c2nc3cc(C(C)(C)O)c(NC(=O)c4cccc(C(F)(F)F)n4)cc3s2)CC1)[C@H]1CCN(c2cccc3c2n(C)c(=O)n3C2CCC(=O)NC2=O)C[C@@H]1F` (some centres unmarked) [I-239], the DC50 was 10 to 100 nM.
To `Cn1c(=O)n(C2CCC(=O)NC2=O)c2cccc(N3CC(OC[C@H]4CC[C@H](n5cc6cc(NC(=O)c7cccc(C(F)(F)F)n7)ccc6n5)CC4)C3)c21` (some centres unmarked) [I-242] belongs over 200 nM; to `Cn1c(=O)n(C2CCC(=O)NC2=O)c2cccc(N3CC(OC[C@H]4CC[C@H](n5cc6cc(NC(=O)c7cccc(C(F)(F)F)c7)ccc6n5)CC4)C3)c21` (some centres unmarked) [I-251], over 200 nM.
To `COc1cc2nc([C@H]3CC[C@H](CN4CC[C@@H](c5cccc6c5n(C)c(=O)n6C5CCC(=O)NC5=O)[C@H](F)C4)CC3)sc2cc1NC(=O)c1cncc(C#N)c1` (some centres unmarked) [I-277] belongs over 200 nM; to `COc1cn2nc([C@H]3CC[C@H](CN4CCC5(CCN(c6cccc7c6n(C)c(=O)n7C6CCC(=O)NC6=O)CC5)C(F)(F)C4)CC3)cc2cc1NC(=O)c1cncc(C#N)c1` (some centres unmarked) [I-282], over 200 nM.

For the origin of these results see patent US20250059164A1, “IRAK DEGRADERS AND USES THEREOF” (Kymera Therapeutics, Inc., priority 2023, published 2025).
